{
  "source": "patent US11149033B2",
  "about": "“Heteroaryl compound, enantiomer, diastereomer or pharmaceutically acceptable salt thereof, and antiviral composition containing same as active ingredient” (priority 2016, dated 2021)",
  "key": {"[1]": {"tested_on": "B/Florida/04/2006", "assay": "Antiviral activity (drug efficacy evaluation by concentration) against B/Florida/04/2006", "format": "cell-based, B type influenza virus"}, "[2]": {"tested_on": "A/California/07/2009 (H1N1)", "assay": "Antiviral activity (drug efficacy evaluation by concentration) against A/California/07/2009 (H1N1)", "format": "cell-based, A type influenza virus", "details": "Influenza A virus"}, "[3]": {"tested_on": "A/Perth/16/2009 (H3N2)", "assay": "Antiviral activity (drug efficacy evaluation by concentration) against A/Perth/16/2009 (H3N2)", "format": "cell-based, A type influenza virus", "details": "Influenza A virus"}, "[4]": {"assay": "in vitro"}, "[5]": {"details": "read-out: EC50 B/Florida/04/2006, B/Florida/04/2006"}, "[6]": {"details": "H1N1, A/California/07/2009 (H1N1), read-out: EC50 A/California/07/2009 (H1N1)"}, "[7]": {"details": "H3N2, A/Perth/16/2009 (H3N2), read-out: EC50 A/Perth/16/2009 (H3N2)"}, "[8]": {"details": "CC50 B/Florida/04/2006, cytotoxicity in the B/Florida/04/2006 assay"}, "[9]": {"details": "CC50, third EC50/CC50 column pair (c7), beside the EC50 of c6"}},
  "note": "Like-named read-outs stand apart in the source and are kept apart here.",
  "data": [
    {"smiles": "c1ccc(Cc2nnc(SCc3ccccc3-c3ccccc3)o2)cc1", "note": "[Compound 18, 2-(([1,1′-biphenyl]-2-ylmethyl)thio)-5-benzyl-1,3,4-oxadiazole]", "values": [
      {"measurement": "EC50", "setting": "[1]; [5]", "value": 5.18, "unit": "µM"},
      {"measurement": "EC50", "setting": "[2]; [6]", "value": 6.1, "unit": "µM"},
      {"measurement": "EC50", "setting": "[3]; [7]", "value": 6.8, "unit": "µM"},
      {"measurement": "CC50", "setting": "[4]; [8]", "value": "> 50", "unit": "µM"}
    ]},
    {"smiles": "Cc1nn(CCc2nnc(SCc3ccccc3-c3ccccc3)o2)c(C)c1Br", "note": "[Compound 49, 2-(([1,1′-biphenyl]-2-ylmethyl)thio)-5-(2-(4-bromo-3,5-dimethyl-1H-pyrazol-1-yl)ethyl)-1,3,4-oxadiazole]", "values": [
      {"measurement": "EC50", "setting": "[1]; [5]", "value": "> 50", "unit": "µM"},
      {"measurement": "EC50", "setting": "[2]; [6]", "value": "> 50", "unit": "µM"},
      {"measurement": "EC50", "setting": "[3]; [7]", "value": "> 50", "unit": "µM"},
      {"measurement": "CC50", "setting": "[4]; [8]", "value": "> 50", "unit": "µM"}
    ]},
    {"smiles": "Fc1ccc(/C=C/c2nnc(Cc3cncc(Br)c3)o2)c(Cl)c1", "note": "[Compound 205, (E)-2-((5-bromopyridin-3-yl)methyl)-5-(2-chloro-4-fluorostyryl)-1,3,4-oxadiazole]", "values": [
      {"measurement": "EC50", "setting": "[1]", "value": 34.9, "unit": "µM"},
      {"measurement": "EC50", "setting": "[2]; H1N1, read-out: EC50", "value": 43, "unit": "µM"},
      {"measurement": "EC50", "setting": "[3]; H3N2, read-out: EC50", "value": 21.6, "unit": "µM"},
      {"measurement": "CC50", "setting": "[4]; CC50, beside the EC50 of c2", "value": "> 50", "unit": "µM"},
      {"measurement": "CC50", "setting": "[4]; CC50, beside the EC50 of c4", "value": "> 50", "unit": "µM"},
      {"measurement": "CC50", "setting": "[4]; [9]", "value": "> 50", "unit": "µM"}
    ]},
    {"smiles": "Brc1ccc(Cc2nnc(Cc3cccc4ccccc34)o2)cc1", "note": "[Compound 100, 2-(4-bromobenzyl)-5-(naphthalen-1-ylmethyl)-1,3,4-oxadiazole]", "values": [
      {"measurement": "EC50", "setting": "[1]", "value": "> 50", "unit": "µM"},
      {"measurement": "EC50", "setting": "[2]; H1N1, read-out: EC50", "value": "> 50", "unit": "µM"},
      {"measurement": "EC50", "setting": "[3]; H3N2, read-out: EC50", "value": 49, "unit": "µM"},
      {"measurement": "CC50", "setting": "[4]; CC50, beside the EC50 of c2", "value": "> 50", "unit": "µM"},
      {"measurement": "CC50", "setting": "[4]; CC50, beside the EC50 of c4", "value": "> 50", "unit": "µM"},
      {"measurement": "CC50", "setting": "[4]; [9]", "value": "> 50", "unit": "µM"}
    ]},
    {"smiles": "FC(F)(F)Oc1ccc(Cc2nnc(SCc3ccccc3-c3ccccc3)o2)cc1", "note": "[Compound 106, 2-(([1,1′-biphenyl]-2-ylmethyl)thio)-5-(4-(trifluoromethoxy)benzyl)-1,3,4-oxadiazole]", "values": [
      {"measurement": "EC50", "setting": "[1]", "value": 12.1, "unit": "µM"},
      {"measurement": "EC50", "setting": "[2]; H1N1, read-out: EC50", "value": 11.5, "unit": "µM"},
      {"measurement": "EC50", "setting": "[3]; H3N2, read-out: EC50", "value": 11.8, "unit": "µM"},
      {"measurement": "CC50", "setting": "[4]; CC50, beside the EC50 of c2", "value": "> 50", "unit": "µM"},
      {"measurement": "CC50", "setting": "[4]; CC50, beside the EC50 of c4", "value": "> 50", "unit": "µM"},
      {"measurement": "CC50", "setting": "[4]; [9]", "value": "> 50", "unit": "µM"}
    ]},
    {"smiles": "CC(C)c1ccccc1OCc1nnc(Cc2ccccc2)o1", "note": "[Compound 114, 2-benzyl-5-((2-isopropylphenoxy)methyl)-1,3,4-oxadiazole]", "values": [
      {"measurement": "EC50", "setting": "[1]", "value": 12, "unit": "µM"},
      {"measurement": "EC50", "setting": "[2]; H1N1, read-out: EC50", "value": 17.7, "unit": "µM"},
      {"measurement": "EC50", "setting": "[3]; H3N2, read-out: EC50", "value": 17.7, "unit": "µM"},
      {"measurement": "CC50", "setting": "[4]; CC50, beside the EC50 of c2", "value": 21.8, "unit": "µM"},
      {"measurement": "CC50", "setting": "[4]; CC50, beside the EC50 of c4", "value": "> 50", "unit": "µM"},
      {"measurement": "CC50", "setting": "[4]; [9]", "value": "> 50", "unit": "µM"}
    ]},
    {"smiles": "Cc1nn(Cc2nnc(SCC(=O)c3ccccc3-c3ccccc3)o2)c(C)c1Br", "note": "[Compound 13, 1-([1,1′-biphenyl]-2-yl)-2-((5-((4-bromo-3,5-dimethyl-1H-pyrazol-1-yl)methyl)-1,3,4-oxadiazol-2-yl)thio)ethan-1-on]", "values": [
      {"measurement": "EC50", "setting": "[1]; [5]", "value": 42.5, "unit": "µM"},
      {"measurement": "EC50", "setting": "[2]; [6]", "value": "> 50", "unit": "µM"},
      {"measurement": "EC50", "setting": "[3]; [7]", "value": "> 50", "unit": "µM"},
      {"measurement": "CC50", "setting": "[4]; [8]", "value": "> 50", "unit": "µM"}
    ]},
    {"smiles": "Cc1ccccc1CCSc1nnc(Cn2nc(C)c(Br)c2C)o1", "note": "[Compound 26, 2-((4-bromo-3,5-dimethyl-1H-pyrazol-1-yl)methyl)-5-((2-methylphenethyl)thio)-1,3,4-oxadiazole]", "values": [
      {"measurement": "EC50", "setting": "[1]; [5]", "value": 36.2, "unit": "µM"},
      {"measurement": "EC50", "setting": "[2]; [6]", "value": 31.2, "unit": "µM"},
      {"measurement": "EC50", "setting": "[3]; [7]", "value": 29.4, "unit": "µM"},
      {"measurement": "CC50", "setting": "[4]; [8]", "value": "> 50", "unit": "µM"}
    ]},
    {"smiles": "CC(=O)N(Cc1ccccc1-c1ccccc1)c1nnc(Cn2nc(C)c(Br)c2C)o1", "note": "[Compound 45, N-([1,1′-biphenyl]-2-ylmethyl)-N-(5-((4-bromo-3,5-dimethyl-1H-pyrazol-1-yl)methyl)-1,3,4-oxadiazol-2-yl)acetamide]", "values": [
      {"measurement": "EC50", "setting": "[1]; [5]", "value": 23.8, "unit": "µM"},
      {"measurement": "EC50", "setting": "[2]; [6]", "value": 26.2, "unit": "µM"},
      {"measurement": "EC50", "setting": "[3]; [7]", "value": 25.8, "unit": "µM"},
      {"measurement": "CC50", "setting": "[4]; [8]", "value": 33.5, "unit": "µM"}
    ]},
    {"smiles": "Brc1ccc(Cc2nnc(SCc3ccccc3-c3ccccc3)o2)cc1", "note": "[Compound 22, 2-(([1,1′-biphenyl]-2-ylmethyl)thio)-5-(4-bromobenzyl)-1,3,4-oxadiazole]", "values": [
      {"measurement": "EC50", "setting": "[1]; [5]", "value": 4.88, "unit": "µM"},
      {"measurement": "EC50", "setting": "[2]; [6]", "value": 4.9, "unit": "µM"},
      {"measurement": "EC50", "setting": "[3]; [7]", "value": 5, "unit": "µM"},
      {"measurement": "CC50", "setting": "[4]; [8]", "value": "> 50", "unit": "µM"}
    ]},
    {"smiles": "c1ccc(-c2ccccc2CSc2nnc(Cn3cccn3)o2)cc1", "note": "[Compound 4, 2-((1H-pyrazol-1-yl)methyl)-5-(([1,1′-biphenyl]-2-ylmethyl)thio)-1,3,4-oxadiazole]", "values": [
      {"measurement": "EC50", "setting": "[1]; [5]", "value": "> 50", "unit": "µM"},
      {"measurement": "EC50", "setting": "[2]; [6]", "value": "> 50", "unit": "µM"},
      {"measurement": "EC50", "setting": "[3]; [7]", "value": "> 50", "unit": "µM"},
      {"measurement": "CC50", "setting": "[4]; [8]", "value": "> 50", "unit": "µM"}
    ]},
    {"smiles": "Brc1ccn(Cc2nnc(SCc3ccccc3-c3ccccc3)o2)n1", "note": "[Compound 11, 2-(([1,1′-biphenyl]-2-ylmethyl)thio)-5-((3-bromo-1H-pyrazol-1-yl)methyl)-1,3,4-oxadiazole]", "values": [
      {"measurement": "EC50", "setting": "[1]; [5]", "value": 12.9, "unit": "µM"},
      {"measurement": "EC50", "setting": "[2]; [6]", "value": 13.2, "unit": "µM"},
      {"measurement": "EC50", "setting": "[3]; [7]", "value": 12.5, "unit": "µM"},
      {"measurement": "CC50", "setting": "[4]; [8]", "value": "> 50", "unit": "µM"}
    ]}
  ]
}
